Laboratory results reported in US20100247564A1, “METHODS AND COMPOSITIONS FOR THE USE OF SARGASSUM FUSIFORME FOR THE INHIBITION OF HIV-1 INFECTION” (priority 2007, published 2010).
Entries after “also recorded” stand apart in the source; their conditions may differ. Read-outs that look alike come from different tables or passages of the source.

Legend:
HIV-1 R5 BaL = assay: HIV-1 BaL infection of human ectocervix tissue ex vivo, p24 ELISA; details: for HIV-1 replication (p24): 100 μM PA; for HIV-1 infection reduced: 200 μM PA; for inhibition at 100 µM: Human immunodeficiency virus 1, BAL, in Homo sapiens, read-out: inhibition of HIV-1 infection
Experimental: Ectocervix tissue samples from premenopausal women were directly cultured in a non-polarized manner in 48-well plates in 300 μl/well DMEM/F 12 media for 10 days. […] Tissue was washed 3 times and returned to culture with each respective treatment for the duration of the experiment. At the indicated time points, HIV-1 replication was tested by p24 ELISA, and a two-tailed Student's t-test with p<0.05 was used to calculate statistical significance.
Ectocervix tissue samples (3-mm^3 biopsy) from premenopausal women with conditions not involving cervix were obtained in accordance with AMC approved Institutional Review Board (IRB) protocol, and were processed within 1-3 hours after surgery. Tissue was cultured in a non-polarized manner in 48-well plates in 300 μl/well DMEM/F12 media (Invitrogen) supplemented with 10% FBS for the duration of the experiment. Tissue was treated with the indicated concentrations of PA and infected with HIV-1 R5 BaL at 0.3 MOI.
Before infection, cells or cervix tissue were incubated for the indicated time in culture media with different concentrations of either PA. Cells or tissue were then washed 3 times with HBSS (Invitrogen), and infected with HIV-1 at the indicated MOI. Infected cells or tissue were washed 3 times, and returned to culture with the same concentration of each treatment for the duration of experiment. Infection was monitored in cell-free supernatants by HIV-1 p24 core antigen content accumulation by enzyme-linked immunosorbent assay (ELISA) using an HIV-1 Ag kit, as specified by the manufacturer.

uninfected PBMCs = assay: Toxicity (LD50) on uninfected PBMCs; type: cell-based, human
[1] = test system: cell fusion (anti-HIV activity); assay: Inhibition of cell fusion by individual fatty acids; type: cell-based; details: Human immunodeficiency virus 1, read-out: percentage of inhibition of cell fusion
Experimental: Anti-HIV activity of the individual fatty acids was tested at four different concentrations. The values given in Table 1 represent the percentage of inhibition of cell fusion in the presence of each fatty acid.

R5-tropic 81A = assay: GHOST X4/R5 cell infection with R5-tropic 81A, flow cytometry; type: cell-based, HIV-1; details: for infected cells: 52.5% at 0 μM
sCD4 [2] = molecular target: T1, sCD4 (Homo sapiens, UniProt P01730); assay: Saturation transfer difference NMR (STD-NMR) binding to sCD4; details: NMR buffer with 20% d6-DMSO, room temperature
T1 construct: soluble CD4 (sCD4) protein; purchased Progenics Pharmaceuticals
Experimental: FIGS. 15A-E show in vitro binding experiments of sCD4 with PA. FIG. 15A is a homonuclear NMR spectrum of 100 μM PA in the NMR buffer (10 mM KPO4 buffer, pH 7.0, 20% d6-DMSO, and 80% D2O). […] Tryptophan fluorescence was measured using an excitation wavelength of 280 nm. An increase of PA causes a red shift of 2 nm and quenching of the tryptophan fluorescence of sCD4.
We used a one-dimensional saturation transfer difference NMR (STD-NMR) experiment to characterize the binding of PA to sCD4 in vitro. […]
To perform the STD-NMR experiment, we used commercially available sCD4 (200 μg, 4.4 nmol, Progenics Pharmaceuticals), which was exchanged into the NMR buffer (160 μl of D2O and 40 μl d6-DMSO, containing 10 mM KPO4 buffer, pH 7.0). […] The NMR data were processed and analyzed using Topspin 2.0 (Bruker).
During the STD-NMR experiment, we titrated increasing concentrations of PA into sCD4 solution, and observed PA binding to sCD4, as shown by an increase in the intensity of the ligand STD-NMR signal (FIGS. 15A and 15B). The intensity of the STD signal was quantified by calculating the difference between the intensity of one signal in the off-resonance NMR spectrum, or reference NMR spectrum (I0), and the intensity of a signal in the on-resonance NMR spectrum (Isat) for various concentrations of the ligand (FIG. 15C). […]

X4-tropic NL4-3 [3] = test system: X4-tropic NL4-3
X4-tropic NL4-3 [4] = assay: GHOST X4/R5 cell infection with X4-tropic NL4-3, flow cytometry; type: cell-based, HIV-1; details: for infected cells: 20% at 0 μM
BlaM-Vpr-X4-tropic NL4-3 = assay: microbe, parasite or virus in culture; type: cell-based, HIV-1; details: for virus-positive cells: 37.6% untreated
NL4-3 = assay: MAGI cell assay with sCD4; type: cell-based, HIV-1; details: increasing concentrations of PA with 200 nM sCD4
[5] = test system: R5-tropic primary isolate ADA
sCD4 [6] = molecular target: T1, sCD4; assay: sCD4 tryptophan fluorescence titration; type: binding
Experimental: The tryptophan fluorescence of sCD4 was used to estimate binding affinity of PA to sCD4. Measurements were performed on a Fluorolog-3 fluorescence spectrophotometer (Horiba Jobin Yvon) at 25° in a 1-ml stirred cuvette. For fluorescence titration experiments, 2 μM of sCD4 (Progenics Pharmaceuticals) dissolved in the NMR buffer was used, and a 1 mM solution of PA dissolved in the NMR buffer was added in 1 μM steps. Titrations in the absence of sCD4 were performed as a reference. Tryptophan fluorescence was measured using an excitation wavelength of 290 nm. The fluorescence emission signal was subtracted from the signal of the reference titrations, and the differences adjusted by the dilution factor were plotted against the final concentration of added PA. Curve fitting (OriginLab) was performed to find the best values for the Kd using a single-site binding isotherm approximation.

uninfected macrophages = assay: Toxicity (LD50) on uninfected macrophages; type: cell-based, human
ectocervix tissue = assay: Ectocervix tissue viability, MTT assay; type: cell-based, human; details: day 10 after infection, PA-treated compared to untreated tissue
[7] = Human immunodeficiency virus 1, read-out: inhibition of infection (R5)
[8] = Human immunodeficiency virus 1, NL43, SUP-T1, read-out: inhibition of HIV-1 fusion
[9] = saturating concentrations of PA

CCCCCCCCCCCCCCCC(=O)O [PA, palmitic acid]
HIV-1 replication (p24) (HIV-1 R5 BaL; day 4, untreated 943): 604 pg p24/ml
HIV-1 replication (p24) (HIV-1 R5 BaL; day 7, untreated 1421): 960 pg p24/ml
HIV-1 replication (p24) (HIV-1 R5 BaL; day 10, untreated 785): 452 pg p24/ml
HIV-1 infection reduced (HIV-1 R5 BaL; day 4): 38%
HIV-1 infection reduced (HIV-1 R5 BaL; day 10): 43%
inhibition at 100 µM (HIV-1 R5 BaL; 96 h): 36%
inhibition at 100 µM (HIV-1 R5 BaL; 168 h): 32%
inhibition at 100 µM (HIV-1 R5 BaL; 240 h): 42%
mean toxicity lethal dose (LD50) (uninfected PBMCs): ≈ 154 μM
inhibition at 0.5 µg/mL ([1]; 0.5 μg/ml): 33.5%
inhibition at 1 µg/mL ([1]; 1 μg/ml): 46.1%
inhibition at 2 µg/mL ([1]; 2 μg/ml): 64.2%
inhibition at 5 µg/mL ([1]; 5 μg/ml): 50.6%
infected cells (R5-tropic 81A; 10 μM PA): 44.77%
infected cells (R5-tropic 81A; 20 μM PA): 36.06%
infected cells (R5-tropic 81A; 40 μM PA): 29.88%
infected cells (R5-tropic 81A; 60 μM PA): 22.88%
infected cells (R5-tropic 81A; 100 μM PA): 14.45%
inhibition at 10 µM (R5-tropic 81A; [7]): 15%
inhibition at 20 µM (R5-tropic 81A; [7]): 31%
inhibition at 40 µM (R5-tropic 81A; [7]): 43%
inhibition at 60 µM (R5-tropic 81A; [7]): 56%
inhibition at 100 µM (R5-tropic 81A; [7]): 73%
IC50 (R5-tropic 81A; Human immunodeficiency virus 1, read-out: mean inhibitory concentration (IC50) for R5 inhibition): 51 µM
STD-NMR signal on titration into sCD4 solution (sCD4 [2]): binds to sCD4 specifically
IC50 (X4-tropic NL4-3 [3]; Human immunodeficiency virus 1, NL43, PBMC, 144 h): ~0.9 µM
inhibition of virus replication (X4-tropic NL4-3 [3]; up to 22 μM PA, day 6 (peak of infection)): 95%
infected cells (X4-tropic NL4-3 [4]; 10 μM PA): 17.46%
infected cells (X4-tropic NL4-3 [4]; 20 μM PA): 15.25%
infected cells (X4-tropic NL4-3 [4]; 40 μM PA): 12.03%
infected cells (X4-tropic NL4-3 [4]; 60 μM PA): 9.62%
infected cells (X4-tropic NL4-3 [4]; 100 μM PA): 5.9%
IC50 (X4-tropic NL4-3 [4]; Human immunodeficiency virus 1, NL43, read-out: mean inhibitory concentration (IC50) for X4 inhibition): ~56 µM
inhibition at 10 µM (X4-tropic NL4-3 [4]; Human immunodeficiency virus 1, NL43, 10 μM PA): 13%
inhibition at 20 µM (X4-tropic NL4-3 [4]; Human immunodeficiency virus 1, NL43, 20 μM PA): 24%
inhibition at 40 µM (X4-tropic NL4-3 [4]; Human immunodeficiency virus 1, NL43, 40 μM PA): 40%
inhibition at 60 µM (X4-tropic NL4-3 [4]; Human immunodeficiency virus 1, NL43, 60 μM PA): 52%
inhibition at 100 µM (X4-tropic NL4-3 [4]; Human immunodeficiency virus 1, NL43, 100 μM PA): 70%
virus-positive cells (BlaM-Vpr-X4-tropic NL4-3; 2 μM PA): 24.6%
virus-positive cells (BlaM-Vpr-X4-tropic NL4-3; 4 μM PA): 19.7%
virus-positive cells (BlaM-Vpr-X4-tropic NL4-3; 8 μM PA): 14.4%
inhibition at 2 µM (BlaM-Vpr-X4-tropic NL4-3; [8]): 34.6%
inhibition at 4 µM (BlaM-Vpr-X4-tropic NL4-3; [8]): 47.8%
inhibition at 8 µM (BlaM-Vpr-X4-tropic NL4-3; [8]): 61.6%
reversal of sCD4 inhibition of infection (NL4-3): completely reversed
IC50 ([5]; Human immunodeficiency virus 1, Macrophage): ~37 µM
inhibition of primary isolate ADA infection ([5]; up to 100 μM PA, day 10 (peak of replication)): 91%
Kd (sCD4 [6]): 1.5 ± 0.2 µM
quenching of the sCD4 tryptophan fluorescence (sCD4 [6]; [9]): 30%
red shift of the emission peak (sCD4 [6]; [9]): 2 nm
LD50 (uninfected macrophages): 400 µM
tissue toxicity (MTT viability assay) (ectocervix tissue): not toxic to tissue; also recorded: absence of toxicity
